Reference: patent publication US9416347B2, “Method of treating bacterial contamination in a microalgae culture with pH shock” (Heliae Development LLC, priority 2014, dated 2016)
Where two headings read alike, the source gives them in different places.

Legend:
Chlorella sp. [1] = conditions: pH lowered from about 7.5 to 3.5 for 15 minutes, raised back with 5M NaOH
Description: The first 400 ml culture was maintained as an untreated control at a pH of about 7.5. […] The pH treatments were applied directly to the cultures, without previous concentration of the microalgae or subsequent dilution through inoculation into fresh culture media. All cultures were incubated with shaking at 100 rpm in 5% carbon dioxide and 25° C. […] 100 μM photon/m^2 s of light was also provided to create mixotrophic growth conditions. The cultures were monitored for 4 days (96 hours with dry weight samples taken at 0, 48, and 96 hours). Live bacteria count samples were taken at 0 and 48 hours, and quantified using aerobic colony forming units (CFU) obtained from plate counts utilizing Petrifilm available from 3M (St. Paul, Minn.). A bacteria to microalgae ratio was also quantified using guava flow cytometry.

Chlorella sp. [2] = conditions: culture at 1,029 mg/L acetate, pH 3.5 for 15 minutes, returned to 7.5 with 2 M NaOH
Description: The pH treated culture samples were maintained at the culture pH of 3.5 for 15 minutes before returning the culture pH to 7.5 by adding 2 M NaOH.
The pH treatment was applied directly into the culture, without previous concentration or subsequent dilution through inoculation into a fresh media. All cultures were incubated with shaking at 100 rpm in 5% carbon dioxide and 25° C. […] 100 μM photon/m^2 s of light was also provided to create mixotrophic growth conditions. The cultures were monitored for 4 days (96 hours with dry weight samples taken at 0, 48, and 96 hours). Residual acetate analyses were carried at the end of the experiment.

[3] = in water; cited from earlier work
Chlorella sp. [4] = tested on: Chlorella sp.
Description: 100 mL volume cultures were prepared in 250 mL flasks, and cultured at a temperature of 25° C., a shaking frequency of 100 rpm, and a light intensity of 100 μM photon/m^2 s for 7 days (168 hours). The cultures were inoculated into two times BG-11 culture media at a cell density of 1.12 g/L. The different treatments of sodium acetate consisted of concentrations of 0, 2.5, 5, 7.5, 10, 20, 30, and 40 g/L. Samples were taken every 24 hours to measure the cell dry weights (g/L) of the cultures.

[5] = tested on: live bacteria in mixotrophic culture of Chlorella; conditions: for Total live bacteria count: pH lowered to 3.5 with hydrochloric acid
Description: The 2 L sample was split into equal 1 L cultures in flasks, and incubated at 25° C. and 100 rpm (shaking) for 24 hours to allow metabolization of any residual acetate in the cultures. The two cultures were then blended together and then separated into equal 1 L cultures to ensure homogeneity in the two cultures. […] Samples were taken from both cultures to quantify the initial live bacteria count and subsequent counts using aerobic colony forming units (CFU) obtained from plate counts utilizing Petrifilm available from 3M (St. Paul, Minn.).

`CC(=O)O` [Acetic acid, acetic acid] showed a cell dry weight (Chlorella sp. [1]; 0 h) of 0.76 ± 0.00 g/L, a cell dry weight (Chlorella sp. [1]; 48 h) of 1.73 ± 0.04 g/L and a cell dry weight (Chlorella sp. [1]; 96 h) of 3.46 ± 0.09 g/L. For the same molecule, the “Cell Dry Weight” value (Chlorella sp. [2]; 0 h) was 0.80 ± 0.02 g/L, the “Cell Dry Weight” value (Chlorella sp. [2]; 48 h) was 0.78 ± 0.06 g/L and the “Cell Dry Weight” value (Chlorella sp. [2]; 96 h) was 0.89 ± 0.01 g/L.
In the case of `O=C(O)CC(O)C(=O)O` (centres unmarked) [malic acid], the pKa [3] is listed as “about 3.4”.
For `CCCCCCCCCCCCCCCC(=O)O` [palmitic acid], the pKa [3] is listed as “about 4.7”.
For `CC(=O)C(=O)O` [pyruvic acid], the pKa [3] is listed as “about 2.5”.
With `CC(=O)[O-].[Na+]` [sodium acetate] the “Growth of Chlorella” value (Chlorella sp. [4]; 2.5 g/L sodium acetate) was 0.620 g/L day, the “Cell dry weights of treatments by Concentration of Sodium Acetate” value (“Cell dry weights of treatments” below) (Chlorella sp. [4]; 2.5 g/L sodium acetate, 0 h) was 0.12 g/L and the “Cell dry weights of treatments” value (Chlorella sp. [4]; 2.5 g/L sodium acetate, 24 h) was 0.23 g/L. The “Cell dry weights of treatments” value (Chlorella sp. [4]; 2.5 g/L sodium acetate, 48 h) was 0.85 g/L, the “Cell dry weights of treatments” value (Chlorella sp. [4]; 2.5 g/L sodium acetate, 72 h) was 1.10 g/L and the “Cell dry weights of treatments” value (Chlorella sp. [4]; 2.5 g/L sodium acetate, 144 h) was 2.72 g/L. For the same molecule, the “Cell dry weights of treatments” value (Chlorella sp. [4]; 2.5 g/L sodium acetate, 168 h) was 3.23 g/L, the “Growth of Chlorella” value (Chlorella sp. [4]; 5 g/L sodium acetate) was 0.065 g/L day and the “Cell dry weights of treatments” value (Chlorella sp. [4]; 5 g/L sodium acetate, 0 h) was 0.12 g/L. The “Cell dry weights of treatments” value (Chlorella sp. [4]; 5 g/L sodium acetate, 24 h) was 0.19 g/L, the “Cell dry weights of treatments” value (Chlorella sp. [4]; 5 g/L sodium acetate, 48 h) was 0.25 g/L and the “Cell dry weights of treatments” value (Chlorella sp. [4]; 5 g/L sodium acetate, 72 h) was 0.55 g/L. For the same molecule, the “Cell dry weights of treatments” value (Chlorella sp. [4]; 5 g/L sodium acetate, 144 h) was 1.89 g/L, the “Cell dry weights of treatments” value (Chlorella sp. [4]; 5 g/L sodium acetate, 168 h) was 2.41 g/L and the “Cell dry weights of treatments” value (Chlorella sp. [4]; 7.5 g/L sodium acetate, 0 h) was 0.12 g/L. For the same molecule, the “Cell dry weights of treatments” value (Chlorella sp. [4]; 7.5 g/L sodium acetate, 24 h) was 0.17 g/L, the “Cell dry weights of treatments” value (Chlorella sp. [4]; 7.5 g/L sodium acetate, 48 h) was 0.15 g/L and the “Cell dry weights of treatments” value (Chlorella sp. [4]; 7.5 g/L sodium acetate, 72 h) was 0.13 g/L. The “Cell dry weights of treatments” value (Chlorella sp. [4]; 7.5 g/L sodium acetate, 144 h) was 0.10 g/L, the “Cell dry weights of treatments” value (Chlorella sp. [4]; 7.5 g/L sodium acetate, 168 h) was 0.07 g/L and the “Cell dry weights of treatments” value (Chlorella sp. [4]; 10 g/L sodium acetate, 0 h) was 0.12 g/L. The “Cell dry weights of treatments” value (Chlorella sp. [4]; 10 g/L sodium acetate, 24 h) was 0.13 g/L, the “Cell dry weights of treatments” value (Chlorella sp. [4]; 10 g/L sodium acetate, 48 h) was 0.16 g/L and the “Cell dry weights of treatments” value (Chlorella sp. [4]; 10 g/L sodium acetate, 72 h) was 0.11 g/L. For the same molecule, the “Cell dry weights of treatments” value (Chlorella sp. [4]; 10 g/L sodium acetate, 144 h) was 0.09 g/L, the “Cell dry weights of treatments” value (Chlorella sp. [4]; 10 g/L sodium acetate, 168 h) was 0.00 g/L and the “Cell dry weights of treatments” value (Chlorella sp. [4]; 20 g/L sodium acetate, 0 h) was 0.12 g/L. The “Cell dry weights of treatments” value (Chlorella sp. [4]; 20 g/L sodium acetate, 24 h) was 0.16 g/L, the “Cell dry weights of treatments” value (Chlorella sp. [4]; 20 g/L sodium acetate, 48 h) was 0.13 g/L and the “Cell dry weights of treatments” value (Chlorella sp. [4]; 20 g/L sodium acetate, 72 h) was 0.12 g/L. The “Cell dry weights of treatments” value (Chlorella sp. [4]; 20 g/L sodium acetate, 144 h) was 0.07 g/L, the “Cell dry weights of treatments” value (Chlorella sp. [4]; 20 g/L sodium acetate, 168 h) was 0.00 g/L and the “Cell dry weights of treatments” value (Chlorella sp. [4]; 30 g/L sodium acetate, 0 h) was 0.12 g/L. For the same molecule, the “Cell dry weights of treatments” value (Chlorella sp. [4]; 30 g/L sodium acetate, 24 h) was 0.14 g/L, the “Cell dry weights of treatments” value (Chlorella sp. [4]; 30 g/L sodium acetate, 48 h) was 0.11 g/L and the “Cell dry weights of treatments” value (Chlorella sp. [4]; 30 g/L sodium acetate, 72 h) was 0.09 g/L. The “Cell dry weights of treatments” value (Chlorella sp. [4]; 30 g/L sodium acetate, 144 h) was 0.08 g/L, the “Cell dry weights of treatments” value (Chlorella sp. [4]; 30 g/L sodium acetate, 168 h) was 0.00 g/L and the “Cell dry weights of treatments” value (Chlorella sp. [4]; 40 g/L sodium acetate, 0 h) was 0.12 g/L. For the same molecule, the “Cell dry weights of treatments” value (Chlorella sp. [4]; 40 g/L sodium acetate, 24 h) was 0.11 g/L, the “Cell dry weights of treatments” value (Chlorella sp. [4]; 40 g/L sodium acetate, 48 h) was 0.09 g/L and the “Cell dry weights of treatments” value (Chlorella sp. [4]; 40 g/L sodium acetate, 72 h) was 0.10 g/L. For the same molecule, the “Cell dry weights of treatments” value (Chlorella sp. [4]; 40 g/L sodium acetate, 144 h) was 0.09 g/L, the “Cell dry weights of treatments” value (Chlorella sp. [4]; 40 g/L sodium acetate, 168 h) was 0.00 g/L and the “tolerance limit for this strain of Chlorella” value (Chlorella sp. [4]; as restated in Example 10) was 7500 mg/L. For the same molecule, the “Growth of Chlorella” value (Chlorella sp. [4]; concentrations of 7.5 g/L and higher) was “did not show any growth”, the “acetate concentration tolerance for Chlorella” value (Chlorella sp. [4]; mixotrophic flask culture, 7 days) was “approximately 7.5 g/L” and the “live bacteria counts (below detection)” value ([5]; 2.5 g/L sodium acetate, pH 3.5 with HCl, after 60 minutes) was < 1,000 CFU/ml. For the same molecule, the live bacteria ([5]; 2.5 g/L sodium acetate, pH 3.5 with HCl, after 180 minutes) was “no measurable live bacterium”, the “Total live bacteria count” value ([5]; 2.5 g/L sodium acetate, 0 min) was 5.00E+06 CFU and the “Total live bacteria count” value ([5]; 2.5 g/L sodium acetate, 5 min) was 8.00E+04 CFU. For the same molecule, the “Total live bacteria count” value ([5]; 2.5 g/L sodium acetate, 15 min) was 4.00E+04 CFU, the “Total live bacteria count” value ([5]; 2.5 g/L sodium acetate, 30 min) was “none detected” and the “Total live bacteria count” value ([5]; 2.5 g/L sodium acetate, 60 min) was 1.00E+03 CFU. For the same molecule, the “Total live bacteria count” value ([5]; 2.5 g/L sodium acetate, 180 min) was 1.00E+03 CFU and the “reduction in live bacteria” value ([5]; sodium acetate present and treated with second acid, after 60 minutes) was 3.5 order of magnitude.
